These results are taken from patent publication US20230137306A1 (priority 2020, published 2023).

Data set [1] deals with SARS-CoV-2. To be noted: human, in vivo; cited from earlier work.
Data set [2] has as its system membrane fusion induced by the S protein of SARS-CoV-2. It counts as cell-based, human.
The test system of data set [3] is membrane fusion induced by the S protein of SARS-CoV. Type of data set: cell-based, human. Particulars: 293FT target cells, nafamostat 0.1 μM to 10 μM, gabexsate 1 μM to 10 μM, FIG. 6.
The subject of data set [4] is RNA viruses such as norovirus, bunyavirus, arenavirus, flavivirus and Filovirus. Particulars: cited from earlier work.
Data set [5] concerns COVID-19. To be noted: randomized controlled trials; cited from earlier work.
Data set [6] has as its system SARS-CoV. To be noted: cited from earlier work.
Data set [7] is described as follows: Pharmacokinetics, intravenous drip in healthy adult males. Particulars: 20 mg intravenous drip over 90 minutes; corresponds to 61.5 ng/mL.
The conditions of data set [8]: healthy adult males, cited from earlier work.
In data set [9] the test system is membrane fusion induced by the S protein of SARS-CoV-2 (H3255 cells). Type of data set: cell-based, human.
In data set [10] the test system is membrane fusion caused by the S protein of MERS-CoV. To be noted: cited from earlier work.
Data set [11] deals with SARS-CoV-2. Particulars: read-out: 50% infection inhibitory concentration (IC50); Vero E6 cells, TMPRSS2 not expressed; Wang et al.; cited from earlier work.
Data set [12] concerns membrane fusion induced by the S protein of SARS-CoV-2 (Calu-3 cells). Type of data set: cell-based, human.

Each structure is given as a SMILES string. Counter-ions that a name gives are not always drawn. Like-named read-outs stand apart in the source and are kept apart here.

With `CCN(CCO)CCCC(C)Nc1ccnc2cc(Cl)ccc12` (stereo not drawn) [Hydroxychloroquine], the “removal of SARS-CoV-2 from the nasopharynx” value in [1] was “removed at high frequency”.
On to `CN(C)C(=O)COC(=O)Cc1ccc(OC(=O)c2ccc(NC(=N)N)cc2)cc1` [camostat mesylate, dimethylcarbamoylmethyl 4-(4-guanidinobenzoyloxy)phenylacetate monomethanesulfonate], for which, in [2], the “inhibitory effect on membrane fusion (relative cell fusion, RL activity)” value is given as “membrane fusion was inhibited” and the “inhibitory effect relative to that of nafamostat mesylate” value is listed as “about 1/10”. Besides, the “inhibitory effect on membrane fusion (relative cell fusion, RL activity)” value in [3] is given as “second highest inhibitory effect”.
For `NC(=O)c1nc(F)c[nH]c1=O` [favipiravir], the “antiviral activity against RNA viruses” value in [4] is on record as “exhibits antiviral activity”.
In the case of `Cc1cccc(C)c1OCC(=O)N[C@@H](Cc1ccccc1)[C@@H](O)C[C@H](Cc1ccccc1)NC(=O)[C@H](C(C)C)N1CCCNC1=O` [lopinavir], the “improvement of the symptoms of COVID-19” value in [5] was “could not improve the symptoms”. Moreover, the “inhibitory activity against SARS-CoV” value in data set [6] is “exhibited inhibitory activity”.
Turning to `N=C(N)c1ccc2cc(OC(=O)c3ccc(N=C(N)N)cc3)ccc2c1` [nafamostat mesylate, 6-amidinonaphthalen-2-yl 4-guanidinobenzoate bis(methanesulfonate)], the “maximum blood concentration converted to” value in data set [7] amounted to 114 nM. For the same compound, the “maximum blood concentration of unchanged agent” value in [8] (10 mg intravenous drip over 90 minutes) is on record as 16.4 ng/mL. Besides, in [8] (20 mg intravenous drip over 90 minutes), the “maximum blood concentration of unchanged agent” value is listed as 61.5 ng/mL. Moreover, the “suppression of membrane fusion” value in data set [9] is “almost completely suppressed”. In [10], the “inhibition of membrane fusion caused by the S protein of MERS-CoV” value is reported as “effectively inhibits”. For the same compound, the IC50 in data set [11] is 22.5 µM. In addition, in [12], the “concentration lower than that used for the 293FT cells” value is reported as “about 10 fold”; the “inhibitory activity against membrane fusion, stronger than that of camostat mesylate” value is recorded as “about 10 fold”; the “suppression of membrane fusion” value is reported as “almost completely suppressed”.
Take `CC(C)c1nc(CN(C)C(=O)N[C@H](C(=O)N[C@@H](Cc2ccccc2)C[C@H](O)[C@H](Cc2ccccc2)NC(=O)OCc2cncs2)C(C)C)cs1` [ritonavir]: the “improvement of the symptoms of COVID-19” value in [5] is listed as “could not improve the symptoms”. In addition, in data set [6], the “inhibitory activity against SARS-CoV” value is “exhibited inhibitory activity”.
